In patent US20240018136A1, “CDK Inhibitors And Their Use As Pharmaceuticals” (Prelude Therapeutics, Incorporated, priority 2022, published 2024):

Experiments:
OVCAR3 p-RB = test: pRB ICW assay in OVCAR3 cells; format: cell-based; conditions: Homo sapiens, OVCAR-3, incubated with compound for 2 hours
Procedure: pRB ICW Assay in OVCAR3 Cells
OVCAR3 cells were maintained in RPMI (Corning, Catalog #: 10-040-CV) supplemented with 10% v/v FBS (Gibco, Catalog #: 26140-079), 1% v/v Penicillin Streptomycin (Gibco, Catalog #15140-122.) OVCAR3 cells grown at log phase were trypsinized, counted, and resuspended in fresh medium to reach a final density of 6.7e4 cells/mL and 75 μL of culture were dispensed into a 384-well plate (Falcon, cat #353962) using Multidrop Combi dispenser (Thermo Scientific). The next day, compounds were dispensed as a 9-point, ½ log serial dilution using a Tecan digital dispenser (D300e), and cells were incubated with compound for 2 hours in a humidified incubator at 37° C. A reference compound at a final concentration of 10 μM was used as a control for maximum inhibition. Each compound was tested in duplicates in each experiment. At the end of the incubation, 25 μL of 16% paraformaldehyde (Electron Microscopy, cat #15710) was slowly added to each well and the plate was incubated at room temperature (RT) for 30 minutes to fix cells. Cells were then permeabilized by incubating with 50 μL/well of wash buffer (lx PBS with 0.1% Triton X-100) 5×5 minutes, followed by 1 hour blocking with 30 μL/well of Odyssey blocking buffer (Li-COR, cat #927-40000), all at RT. Anti-phosphor RB antibody (Cell signaling 8516S) was diluted 1:1000 in Odyssey blocking buffer and 20 μL was added to all wells and incubated overnight in 4° C. with gently rocking. The next day, cells were washed 5×5 min with 50 μL/well of wash buffer, followed with 1 hour incubation with secondary antibody and DRAQ5 diluted in Odyssey blocking buffer (1:500 dilution for secondary antibody and 1:2000 dilution for DRAQ5), 5×5 min washes, and one last wash with water. Plates were dried in 37° C. oven for 5 min and scanned using Li-COR Odyssey CLx imaging system to acquire intensities at 700 and 800 nm channels.

CDK4/Cyclin D1 = target: T1, CDK4/Cyclin D1 (Homo sapiens, UniProt P11802); test: CDK4/CyclinD1 enzymatic activity assay (TR-FRET); format: biochemical; conditions: ATP 2 mM final, read-out: CDK4_D1 IC50
T1 construct: purchased ProQinase; host or cells: insect cell
Procedure: CDK4/CyclinD1 Enzymatic Activity Assay
(§1) The inhibitory activity of compounds was evaluated in vitro using TR-FRET assay with white 384-well low volume microplate (Greiner Bio-One). CDK4/Cyclin D1 catalyzed phosphorylation of peptide in the presence and absence of compounds was measured and used in IC5 determination. Recombinant protein complex CDK4/Cyclin D1, expressed from insect cell, was purchased from ProQinase. Testing compounds were dissolved in DMSO at 1 mM and tested in 9-dose IC50 mode. The reaction mixture was prepared by mixing CDK4/CyclinD1 (1 nM final), ULight-4E-BP1 (100 nM final, Perkinelmer, TRF0128-D), and ATP (2 mM final) in assay buffer (20 mM of HEPES pH 7.4, 1 mM of EGTA, 0.05% BSA, 0.005% Tween 20, and 1 mM TCEP). The compound of interest in DMSO was added to each well in 3-fold serial dilution by dispenser (TECAN D300E) to make a 9.9 μL of reaction mixture. After 20 minutes preincubation at room temperature, 0.1 μL MgCl2 (10 mM final) was added to initiate the reaction. Following a 45 minute incubation at 37° C., the reaction was stopped by addition of 2 μL of quenching buffer consisting of Lance detection buffer (Perkinelmer CR97-100C), LANCE Ultra Europium-anti-P-4E-BP1 (Perkinelmer, TRF0216-D), EDTA, and incubate at room temperature for an additional 60 minutes in the dark. The reaction signal was measured by Envision multimode plate reader (PerkinElmer, 2102-0010). IC50 values were determined by fitting the data to the standard 4 parameters with Hill Slope using GraphPad Prism software.

CDK2/Cyclin E2 = CDK2/Cyclin E2 (Homo sapiens, UniProt P24941); test: CDK2/CyclinE2 enzymatic activity assay (TR-FRET); format: biochemical; conditions: ATP 1 mM final, read-out: CDK2_E1 IC50
Procedure: CDK2/CyclinE2 Enzymatic Activity Assay
as §1, with “Bio-One). CDK2/Cyclin E2” for “Bio-One). CDK4/Cyclin D1”, “in IC50” for “in IC5”, “complex CDK2/Cyclin E2,” for “complex CDK4/Cyclin D1,”, “mixing CDK2/CyclinE2” for “mixing CDK4/CyclinD1”, “ULight-4E-BP1 (50” for “ULight-4E-BP1 (100”, “ATP (1” for “ATP (2”

T1 sequence (P11802 whole entry): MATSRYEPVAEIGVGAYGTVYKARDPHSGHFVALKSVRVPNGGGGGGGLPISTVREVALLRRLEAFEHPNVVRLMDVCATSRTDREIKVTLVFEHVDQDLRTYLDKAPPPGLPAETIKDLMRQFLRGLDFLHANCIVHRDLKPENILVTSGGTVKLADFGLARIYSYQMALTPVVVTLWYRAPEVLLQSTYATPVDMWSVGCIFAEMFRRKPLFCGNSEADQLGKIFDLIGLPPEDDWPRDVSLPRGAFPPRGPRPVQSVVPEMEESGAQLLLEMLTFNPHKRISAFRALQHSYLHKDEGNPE
T1 sequence (P24385 whole entry partner): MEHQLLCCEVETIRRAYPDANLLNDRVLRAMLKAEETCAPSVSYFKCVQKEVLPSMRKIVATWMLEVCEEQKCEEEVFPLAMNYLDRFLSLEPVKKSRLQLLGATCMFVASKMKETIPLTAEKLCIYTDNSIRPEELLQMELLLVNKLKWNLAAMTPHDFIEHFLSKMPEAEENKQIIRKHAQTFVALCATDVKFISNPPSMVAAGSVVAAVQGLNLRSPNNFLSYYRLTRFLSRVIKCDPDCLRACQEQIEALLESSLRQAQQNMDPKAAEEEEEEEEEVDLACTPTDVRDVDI

SMILES | IC50 (OVCAR3 p-RB) | IC50 (CDK4/Cyclin D1) | IC50 (CDK2/Cyclin E2)
CC(=O)Nc1ncc(-c2nc(NC3CCN(S(C)(=O)=O)CC3)ncc2C(F)(F)F)s1 [Example 21, N-(5-(2-((1-(methylsulfonyl)piperidin-4-yl)amino)-5-(trifluoromethyl)pyrimidin-4-yl)thiazol-2-yl)acetamide] | 100 to 1000 nM | 100 to 1000 nM | ≤ 100 nM
Cc1cc(C(C)O)ccc1-c1ncc(-c2nc(NC3CCN(S(C)(=O)=O)CC3)ncc2C(F)(F)F)s1 (stereo not drawn) [Example 7, 1-[3-Methyl-4-[5-[2-[(1-methylsulfonylpiperidin-4-yl)amino]-5-(trifluoromethyl)pyrimidin-4-yl]-1,3-thiazol-2-yl]phenyl]ethanol] | 100 to 1000 nM | ≤ 100 nM | ≤ 100 nM
CC(C)(O)Cc1ncc(-c2nc(NC3CCN(S(C)(=O)=O)CC3)ncc2C(F)(F)F)s1 [Example 68, 2-methyl-1-(5-(2-((1-(methylsulfonyl)piperidin-4-yl)amino)-5-(trifluoromethyl)pyrimidin-4-yl)thiazol-2-yl) propan-2-ol] | ≤ 100 nM | ≤ 100 nM | ≤ 100 nM
CS(=O)(=O)N1CCC(Nc2ncc(C(F)(F)F)c(-c3cnc(-c4ccc(CO)cc4)s3)n2)CC1 [Example 6, [4-[5-[2-[(1-Methylsulfonylpiperidin-4-yl)amino]-5-(trifluoromethyl)-pyrimidin-4-yl]-1,3-thiazol-2-yl]phenyl]methanol] | 100 to 1000 nM | ≤ 100 nM | ≤ 100 nM
C[C@@H]1CN(S(=O)(=O)c2cn(C)cn2)CC[C@@H]1Nc1ncc(C(F)(F)F)c(-c2cnc(C(C)(C)O)s2)n1 [Example 96, 2-(5-(2-(((3R,4S)-3-methyl-1-((1-methyl-1H-imidazol-4-yl)sulfonyl)piperidin-4-yl)amino)-5-(trifluoromethyl)pyrimidin-4-yl)thiazol-2-yl)propan-2-ol] | ≤ 100 nM | 100 to 1000 nM | ≤ 100 nM
Cn1cnc(S(=O)(=O)N2CCC(Nc3ncc(C(F)(F)F)c(-c4cnc(C(O)C(F)F)s4)n3)CC2)c1 (stereo not drawn) [Example 91, 2,2-difluoro-1-(5-(2-((1-((1-methyl-1H-imidazol-4-yl)sulfonyl)piperidin-4-yl)amino)-5-(trifluoromethyl)pyrimidin-4-yl)thiazol-2-yl)ethan-1-ol] | ≤ 100 nM | ≤ 100 nM | ≤ 100 nM
Cc1ccc(-c2ncc(-c3nc(NC4CCN(S(C)(=O)=O)CC4)ncc3C(F)(F)F)s2)c(C)c1 [Example 11, 4-[2-(2,4-dimethylphenyl)-1,3-thiazol-5-yl]-N-(1-methylsulfonyl-piperidin-4-yl)-5-(trifluoromethyl)pyrimidin-2-amine] | > 1000 nM | 100 to 1000 nM | ≤ 100 nM
CS(=O)(=O)N1CCC(Nc2ncc(C(F)(F)F)c(-c3cnc(NCCF)s3)n2)CC1 [Example 40, N-(2-Fluoroethyl)-5-[2-[(1-methylsulfonylpiperidin-4-yl)amino]-5-(trifluoromethyl)pyrimidin-4-yl]-1,3-thiazol-2-amine] | 100 to 1000 nM | ≤ 100 nM | ≤ 100 nM
CS(=O)(=O)N1CCC(Nc2ncc(C(F)(F)F)c(-c3cnc(NC4CC4)s3)n2)CC1 [Example 36, N-Cyclopropyl-5-[2-[(1-methylsulfonylpiperidin-4-yl)amino]-5-(trifluoromethyl)pyrimidin-4-yl]-1,3-thiazol-2-amine] | 100 to 1000 nM | ≤ 100 nM | ≤ 100 nM
CS(=O)(=O)N1CCC(Nc2ncc(C(F)(F)F)c(-c3cnc(O[C@@H]4CCC[C@H]4O)s3)n2)CC1 [Example 44, (1R,2R)-2-((5-(2-((1-(Methylsulfonyl)piperidin-4-yl)amino)-5-(trifluoromethyl)pyrimidin-4-yl)thiazol-2-yl)oxy)cyclopentanol] | 100 to 1000 nM | ≤ 100 nM | ≤ 100 nM
CC(O)c1ncc(-c2nc(N[C@H]3CCN(S(=O)(=O)c4c[nH]cn4)C[C@H]3C)ncc2C(F)(F)F)s1 (stereo partly drawn) [Example 104, 1-(5-(2-(((3R,4S)-1-((1H-imidazol-4-yl)sulfonyl)-3-methylpiperidin-4-yl)amino)-5-(trifluoromethyl)pyrimidin-4-yl)thiazol-2-yl)ethan-1-ol] | 100 to 1000 nM | 100 to 1000 nM | ≤ 100 nM
CC(C)Nc1ncc(-c2nc(NC3CCN(S(C)(=O)=O)CC3)ncc2C(F)(F)F)s1 [Example 41, 5-[2-[(1-Methylsulfonylpiperidin-4-yl)amino]-5-(trifluoromethyl)pyrimidin-4-yl]-N-propan-2-yl-1,3-thiazol-2-amine] | 100 to 1000 nM | ≤ 100 nM | ≤ 100 nM
Cc1nc(CO)ccc1-c1ncc(-c2nc(NC3CCN(S(C)(=O)=O)CC3)ncc2C(F)(F)F)s1 [Example 10, [6-Methyl-5-[5-[2-[(1-methylsulfonylpiperidin-4-yl)amino]-5-(trifluoromethyl)pyrimidin-4-yl]-1,3-thiazol-2-yl]pyridin-2-yl]methanol] | > 1000 nM | ≤ 100 nM | ≤ 100 nM
CC(O)c1ncc(-c2nc(N[C@H]3CCN(S(=O)(=O)c4cnc(N)s4)C[C@H]3C)ncc2C(F)(F)F)s1 (stereo partly drawn) [Example 103, 1-(5-(2-(((3R,4S)-1-((2-aminothiazol-5-yl)sulfonyl)-3-methylpiperidin-4-yl)amino)-5-(trifluoromethyl)pyrimidin-4-yl)thiazol-2-yl)ethan-1-ol] | > 1000 nM | 100 to 1000 nM | ≤ 100 nM
CS(=O)(=O)N1CCC(Nc2ncc(C(F)(F)F)c(-c3cnc(Cl)s3)n2)CC1 [Example 26, 4-(2-chlorothiazol-5-yl)-N-(1-(methylsulfonyl)piperidin-4-yl)-5-(trifluoromethyl) pyrimidin-2-amine] | 100 to 1000 nM | 100 to 1000 nM | ≤ 100 nM
CC(O)c1ncc(-c2nc(NC3CCN(S(=O)(=O)c4cnn(C)c4)CC3)ncc2C(F)(F)F)s1 (stereo not drawn) [Example 82, 1-(5-(2-((1-((1-methyl-1H-pyrazol-4-yl)sulfonyl)piperidin-4-yl)amino)-5-(trifluoromethyl)pyrimidin-4-yl)thiazol-2-yl)ethan-1-ol] | ≤ 100 nM | ≤ 100 nM | ≤ 100 nM
